{
  "source": "paper PMC5216742",
  "about": "“Discovery and characterization of a novel potent type II native and mutant BCR-ABL inhibitor (CHMFL-074) for Chronic Myeloid Leukemia (CML)” (Oncotarget, 2016)",
  "key": {"[1]": {"biological_target": "T1, ABL1(E255K)-phosphorylated (Homo sapiens, UniProt P00519, E255K)", "T1 construct": "purchased DiscoveRx (KinomeScan service)", "T1 sequence (P00519 whole entry E255K)": "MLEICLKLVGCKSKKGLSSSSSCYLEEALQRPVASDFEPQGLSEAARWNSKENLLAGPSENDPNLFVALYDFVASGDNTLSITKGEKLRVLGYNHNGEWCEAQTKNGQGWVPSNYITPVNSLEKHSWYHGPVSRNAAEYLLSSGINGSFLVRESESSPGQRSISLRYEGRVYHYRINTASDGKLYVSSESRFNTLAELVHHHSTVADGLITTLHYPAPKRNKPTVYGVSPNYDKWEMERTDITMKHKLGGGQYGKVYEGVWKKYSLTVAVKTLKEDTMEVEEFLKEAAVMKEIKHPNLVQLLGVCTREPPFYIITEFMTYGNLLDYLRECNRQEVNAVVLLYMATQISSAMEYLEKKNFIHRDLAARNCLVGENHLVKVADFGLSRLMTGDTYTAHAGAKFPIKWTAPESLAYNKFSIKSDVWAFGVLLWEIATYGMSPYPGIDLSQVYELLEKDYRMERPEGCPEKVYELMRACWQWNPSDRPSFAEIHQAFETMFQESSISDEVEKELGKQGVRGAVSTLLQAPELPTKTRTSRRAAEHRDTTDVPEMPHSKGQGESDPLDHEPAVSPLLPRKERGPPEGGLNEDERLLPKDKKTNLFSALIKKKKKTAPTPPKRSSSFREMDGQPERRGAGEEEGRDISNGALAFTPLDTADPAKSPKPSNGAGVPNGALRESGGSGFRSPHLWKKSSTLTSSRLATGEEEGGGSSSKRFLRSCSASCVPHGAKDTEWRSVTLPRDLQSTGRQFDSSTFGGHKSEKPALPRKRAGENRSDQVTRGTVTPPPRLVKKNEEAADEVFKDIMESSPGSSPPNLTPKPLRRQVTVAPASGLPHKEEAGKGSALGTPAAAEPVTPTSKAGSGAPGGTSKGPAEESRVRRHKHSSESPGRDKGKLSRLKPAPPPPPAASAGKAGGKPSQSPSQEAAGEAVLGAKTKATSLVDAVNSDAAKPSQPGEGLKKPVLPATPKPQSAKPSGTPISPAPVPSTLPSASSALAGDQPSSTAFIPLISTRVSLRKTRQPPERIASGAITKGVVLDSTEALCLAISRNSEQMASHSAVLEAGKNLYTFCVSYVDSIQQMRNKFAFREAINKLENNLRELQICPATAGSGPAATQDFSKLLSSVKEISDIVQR", "test": "KinomeScan profiling", "assay_type": "binding", "conditions": "1 µM CHMFL-074; read-out: % Control"}, "[2]": {"system": "KU812", "test": "Colony formation assay", "assay_type": "cell-based", "conditions": "Homo sapiens", "experimental": "(§1) In brief, 1 mL of 3% agarose combined with 1 mL KU812, MEG01, or K562 growth media was used as the bottom agar in a 6-well plate. 800 cells in 1.7 mL growth media was combined with 0.3 ml of 3% agarose solution and plated on top of the bottom layer. Cells were maintained in a humidified 5% CO2 incubator at 37°C for 15 days, and continuously treated with serially diluted CHMFL-074 in a soft agar medium. On the 15th day, the number of colonies in each well were counted and each measurement was performed in triplicate."}, "[3]": {"system": "K562", "test": "Colony formation assay", "assay_type": "cell-based", "conditions": "Homo sapiens", "experimental": "as §1"}, "[4]": {"system": "MEG-01", "test": "Colony formation assay", "assay_type": "cell-based", "conditions": "Homo sapiens", "experimental": "as §1"}, "[5]": {"system": "Tel-LCK-BaF3", "test": "Anti-proliferation, BaF3 isogenic cell lines", "assay_type": "cell-based", "conditions": "Mus musculus; Tel-LCK-BaF3, 72 hours", "description": "(§2) Retroviral constructs for fusion kinases were made based on the pMSCVpuro (Clontech) backbone. For TEL fusion vectors, the first 1 kb of human TEL gene with an artificial myristoylation sequence ([…]) was cloned into pMSCVpuro retroviral vector, followed by a 3xFLAG tag sequence and a stop codon; for BCR fusion vectors, the first 2.8 kb coding region of p210 amplified from K562 cell line was used in fusion constructs. Then the kinase domain coding sequences were inserted in-frame between TEL/BCR and 3xFLAG sequences. All mutagenesis were performed using the QuikChange Site-Directed Mutagenesis Kit (Stratagene) following the manufacturer's instructions. Retrovirus was packaged in HEK293T cells by transfecting kinase-fusion MSCV vectors together with two helper plasmids, virus supernatants were harvested 48 hours after transfection and filtered before infection. Then BaF3 cells were infected with harvested virus supernatants using spinoculation protocol and stable cell lines were obtained by puromycin selection for 48 hours. A second selection in the absence of IL-3 was performed to obtain IL-3 independent cell lines that solely depend on the introduced kinase activities for cell proliferation.\n(§3) A density of 1 × 10^4 to 2.5 × 10^4 cells/mL cells were mixed with various concentrations of compounds then 100 μL suspension was added to each well and incubated for 72 hours. Cell viability was determined using the CellTiter-Glo assay (Promega, USA) or CCK-8 assay (Beboy, China). Both assays were performed according to the manufacturer instructions. For CellTiter-Glo assay, luminescence was determined in a multi-label reader (Envision, PerkinElmer, USA). […] Data were normalized to control group (DMSO). GI50 were calculated using Prism 6.0 (GraphPad Software, San Diego, CA)."}, "[6]": {"system": "P210-Y253F-BaF3", "test": "Anti-proliferation, BaF3 isogenic cell lines", "assay_type": "cell-based", "conditions": "Mus musculus, BaF3, 72 h", "description": "as §2, §3"}, "[7]": {"system": "Tel-PDGFRα-BaF3", "test": "Anti-proliferation, BaF3 isogenic cell lines", "assay_type": "cell-based", "conditions": "Mus musculus, BaF3, 72 h", "description": "as §2, §3"}, "[8]": {"system": "P210-E255K-BaF3", "test": "Anti-proliferation, BaF3 isogenic cell lines", "assay_type": "cell-based", "conditions": "Mus musculus, BaF3, 72 h", "description": "as §2, §3"}, "[9]": {"system": "P210-T315I-BaF3", "test": "Anti-proliferation, BaF3 isogenic cell lines", "assay_type": "cell-based", "conditions": "Mus musculus; P210-T315I-BaF3, 72 hours", "description": "as §2, §3"}, "[10]": {"system": "BCR-DDR2-BaF3", "test": "Anti-proliferation, BaF3 isogenic cell lines", "assay_type": "cell-based", "conditions": "Mus musculus, BaF3, 72 h", "description": "as §2, §3"}, "[11]": {"system": "Tel-PDGFRβ-BaF3", "test": "Anti-proliferation, BaF3 isogenic cell lines", "assay_type": "cell-based", "conditions": "Mus musculus, BaF3, 72 h", "description": "as §2, §3"}, "[12]": {"system": "Tel-RET-BaF3", "test": "Anti-proliferation, BaF3 isogenic cell lines", "assay_type": "cell-based", "conditions": "Mus musculus, BaF3, 72 h", "description": "as §2, §3"}, "[13]": {"system": "P210-F317L-BaF3", "test": "Anti-proliferation, BaF3 isogenic cell lines", "assay_type": "cell-based", "conditions": "Mus musculus, BaF3, 72 h", "description": "as §2, §3"}, "[14]": {"system": "BaF3", "test": "Anti-proliferation, BaF3 isogenic cell lines", "assay_type": "cell-based", "conditions": "Mus musculus, BaF3, 72 h", "description": "as §2, §3"}, "[15]": {"system": "P210-M351T-BaF3", "test": "Anti-proliferation, BaF3 isogenic cell lines", "assay_type": "cell-based", "conditions": "Mus musculus, BaF3, 72 h", "description": "as §2, §3"}, "[16]": {"system": "TEL-DDR1-BaF3", "test": "Anti-proliferation, BaF3 isogenic cell lines", "assay_type": "cell-based", "conditions": "Mus musculus; TEL-DDR1-BaF3, 72 hours", "description": "as §2, §3"}, "[17]": {"system": "P210-F317I-BaF3", "test": "Anti-proliferation, BaF3 isogenic cell lines", "assay_type": "cell-based", "conditions": "Mus musculus, BaF3, 72 h", "description": "as §2, §3"}, "[18]": {"system": "P210-H369P-BaF3", "test": "Anti-proliferation, BaF3 isogenic cell lines", "assay_type": "cell-based", "conditions": "Mus musculus, BaF3, 72 h", "description": "as §2, §3"}, "[19]": {"system": "P210-Q252H-BaF3", "test": "Anti-proliferation, BaF3 isogenic cell lines", "assay_type": "cell-based", "conditions": "Mus musculus, BaF3, 72 h", "description": "as §2, §3"}, "[20]": {"system": "Tel-HCK-BaF3", "test": "Anti-proliferation, BaF3 isogenic cell lines", "assay_type": "cell-based", "conditions": "Mus musculus, BaF3, 72 h", "description": "as §2, §3"}, "[21]": {"system": "Tel-BLK-BaF3", "test": "Anti-proliferation, BaF3 isogenic cell lines", "assay_type": "cell-based", "conditions": "Mus musculus, BaF3, 72 h", "description": "as §2, §3"}, "[22]": {"system": "normal human B-cells purified from the peripheral blood", "test": "Proliferation assay on normal cells from peripheral blood", "assay_type": "cell-based", "conditions": "at 1 μM", "experimental": "Mononuclear cells were isolated from CML patients or healthy donors by density-gradient centrifugation through Ficoll (Beijing Solarbio Science & Technology Co., Ltd., Beijing, China) at 400 g for 30 min, followed by two washes in 1× phosphate-buffered saline. Cells were then cultured in liquid culture (RPMI1640, supplemented with 20% FBS). All blood samples from CML patients and healthy donors were obtained through written consent under approval of the Chinese Academy of Sciences Institutional Review Board. The ethics committees approved the consent Procedure. CML primary patient cells were tested in liquid culture (RPMI1640, supplemented with 20% FBS) in the presence of different concentrations of CHMFL-074. The trypan blue exclusion assay was used for quantification of cells for seeding for before Cell-Titer Glo assays (Promega, USA). The Cell-Titer Glo assay was used for proliferation studies and carried out according to manufacturer's instructions. Cell viability is reported as percentages of control (untreated) cells."}},
  "data": [
    {"compound": "Cc1ccc(NC(=O)c2ccc(CN3CCN(C)CC3)c(C(F)(F)F)c2)cc1OC1CCN(C(=O)c2cccnc2)CC1", "note": "[CHMFL-074]", "values": [
      {"measurement": "remaining binding at 1 µM", "setting": "[1]", "value": 0.3, "unit": "%"},
      {"measurement": "EC50", "setting": "[2]; 360 h, KU812, soft agar, 15 days", "value": 8, "unit": "nM"},
      {"measurement": "IC50", "setting": "[2]; KU812, read-out: anti-colony formation IC50", "value": 8, "unit": "nM"},
      {"measurement": "EC50", "setting": "[3]; 360 h, K562, soft agar, 15 days", "value": 4, "unit": "nM"},
      {"measurement": "IC50", "setting": "[3]; K562, read-out: anti-colony formation IC50", "value": 4, "unit": "nM"},
      {"measurement": "EC50", "setting": "[4]; 360 h, MEG-01, soft agar, 15 days", "value": 12, "unit": "nM"},
      {"measurement": "IC50", "setting": "[4]; MEG-01, read-out: anti-colony formation IC50", "value": 12, "unit": "nM"},
      {"measurement": "GI50", "setting": "[5]", "value": 2020, "unit": "nM"},
      {"measurement": "GI50", "setting": "[6]", "value": 338, "unit": "nM"},
      {"measurement": "GI50", "setting": "[7]", "value": 95, "unit": "nM"},
      {"measurement": "GI50", "setting": "[8]", "value": 774, "unit": "nM"},
      {"measurement": "GI50", "setting": "[9]", "value": "> 10000", "unit": "nM"},
      {"measurement": "GI50", "setting": "[10]", "value": 2670, "unit": "nM"},
      {"measurement": "GI50", "setting": "[11]", "value": 52, "unit": "nM"},
      {"measurement": "GI50", "setting": "[12]", "value": 630, "unit": "nM"},
      {"measurement": "GI50", "setting": "[13]", "value": 218, "unit": "nM"},
      {"measurement": "GI50", "setting": "[14]", "value": "> 10000", "unit": "nM"},
      {"measurement": "GI50", "setting": "[15]", "value": 349, "unit": "nM"},
      {"measurement": "GI50", "setting": "[16]", "value": 3520, "unit": "nM"},
      {"measurement": "GI50", "setting": "[17]", "value": 355, "unit": "nM"},
      {"measurement": "GI50", "setting": "[18]", "value": 1040, "unit": "nM"},
      {"measurement": "GI50", "setting": "[19]", "value": 118, "unit": "nM"},
      {"measurement": "GI50", "setting": "[20]", "value": "> 10000", "unit": "nM"},
      {"measurement": "GI50", "setting": "[21]", "value": 2860, "unit": "nM"},
      {"measurement": "inhibitory activity against normal human B-cells", "setting": "[22]", "value": "did not show any inhibitory activities"}
    ]}
  ]
}
